Reference: patent US20260373094A1, “MICROSTRUCTURE CONTAINING WATER-SOLUBLE AND FAT-SOLUBLE IMMUNOMODULATOR” (IUCF-HYU (INDUSTRY-UNIVERSITY COOPERATION FOUNDATION …, priority 2022, published 2026)

Legend:
[1] = system: B16F10 melanoma cells; assay: Melanoma cell spheroid volume, 3D cell culture; assay type: cell-based; conditions: SD208 1 μmol/L, TGF-β 5 ng/m, eight days, 3D culture
Experimental: For 3D cell culture, 1,000 B16F10 melanoma cells per 100 μl of DMEM were placed in a PCR tube and collected at the bottom by centrifugation. After culturing the cells in the PCR tubes for three days, they were transferred to a 96-well plate and treated with DMEM containing the immunoadjuvant SD208 (1 μmol/L) and the tumor marker TGF-β (5 ng/m). The DMEM was exchanged with fresh DMEM every three days, and the changes in the size of melanoma cell spheroids were measured for eight days using a microscope.

[2] = system: PD-L1; assay: Inhibition of PD-L1 protein expression in melanoma cells (confocal, flow cytometry); assay type: cell-based; conditions: SD208 1 μmol/L, TGF-β 5 ng/m, 24 hours, B16F10 melanoma cells
Experimental: 5×10^4 B16F10 melanoma cells per well of a cell culture plate were cultured in a 12-well plate using DMEM, and then treated with the immunoadjuvant SD208 (1 μmol/L) and the tumor marker TGF-β (5 ng/m) for 24 hours.
Thereafter, the cells were imaged using a STELLARIS 8 STED confocal laser scanning microscope after treatment with an anti-PD-L1 Alexa 488 fluorescent antibody. In addition, the fluorescence expression level of the PD-L1 protein was confirmed through flow cytometry.

[3] = system: TGF-β; assay: Inhibition of TGF-β activity in melanoma cells (immunofluorescence, western blotting); assay type: cell-based; conditions: SD208 1 μmol/L, TGF-β 5 ng/m, 24 hours, B16F10 melanoma cells
Experimental: 5×10^4 B16F10 melanoma cells per well of a cell culture plate were cultured in a 12-well plate using Dulbecco's Modified Eagle Medium (DMEM), and then treated with the immunoadjuvant SD208 (1 μmol/L) and the tumor marker TGF-β (5 ng/m) for 24 hours. Thereafter, cells were treated with an anti-α-tubulin Alexa 488 fluorescent antibody and 4′,6-diamidino-2-phenylindole (DAPI), and then imaged using the STELLARIS 8 STED confocal laser scanning microscope.
In addition, changes in the expression levels of proteins activated by TGF-β were confirmed by western blotting using anti-Psmad3, anti-smad3, anti-N-cadherin, and anti-E-cadherin antibodies.

[4] = system: B16F10 melanoma cells; assay: Wound healing, 2D melanoma cell culture; assay type: cell-based; conditions: SD208 1 μmol/L, TGF-β 5 ng/m, 24 hours, 2D culture
Experimental: For 2D cell culture, 8×10^4 B16F10 melanoma cells were cultured in a 12-well plate using DMEM until the wells were full. Thereafter, the cells filling the wells were scratched in a cross shape to create a wound, and treated with the immunoadjuvant SD208 (1 μmol/L) and the tumor marker TGF-β (5 ng/m) for 24 hours, and the wound healing rate over time was imaged using a microscope.

[5] = Confocal imaging of fluorescent substances in composite solvent microstructure; assay type: physicochemical; conditions: PBS:DMSO 9:1, 20% (w/v) hyaluronic acid
Experimental: The fluorescein isothiocyanate (FITC) fluorescent substance which is soluble only in a water-soluble solvent, and the Cy5.5 fluorescent substance, which is soluble only in a fat-soluble solvent, were added to a composite solvent containing a mixture of a water-soluble solvent (PBS) and a fat-soluble solvent (DMSO) in a ratio of 9:1 (10% (v/v) fat-soluble) and 20% (w/v) hyaluronic acid was further dissolved, and microstructures were fabricated using the method of Manufacturing Example 1. Thereafter, the composite solvent fluorescence microstructures were imaged using the STELLARIS 8 STED confocal laser scanning microscope.

distribution within the microstructure [5]	Compound	melanoma cell spheroid volume increase effect caused by TGF-β [1]	fluorescence value of PD-L1 (PD-L1 expression) [2]	effect of TGF-β [3]	expression of proteins activated by TGF-β ([3]; Psmad3, smad3, N-cadherin, E-cadherin)	wound healing effect by TGF-β [4]
–	Fc1ccc(Cl)cc1-c1nc(Nc2ccncc2)c2nccnc2n1 [SD208]	inhibited	decreased	inhibited the effect of TGF-β	suppressing the expression of proteins activated by TGF-β	inhibited
evenly distributed	Cy5.5	–	–	–	–	–
